Reference: patent US7601733B2, “5(S)-(2′-hydroxyethoxy)-20(S)-camptothecin and its preparation and use for the treatment of cancer” (priority 2006, dated 2009)

Key:
[1] = test system: NCI-H460 xenografts; test: NCI-H460 xenograft study in nude mice; type: in vivo; conditions: oral, (d×5)2 schedule, deaths/animals
Protocol: Protocol of Comparison Study of 5(RS)-(2′-hydroxyethoxy)-20(S)-camptothecin and 5(S)-(2′-hydroxyethoxy)-20(S)-camptothecin Against NCl-H460 Xenograft in Nude Mice:
Ti is the mean tumor volume.
Percentage tumor growth inhibition was calculated using the formula: Percentage Tumor growth inhibition=100−% T/C.
The other parameter observed was mortality.

[2] = test system: Saos-2 cells over expressing non-functional BCRP mut#10; type: cell-based, human
Protocol: (§1) Protocol for Breast Cancer Resistance Protein (BCRP) Assay:
(§2) The anticancer effect of 5(S)-(2′-hydroxyethoxy)-20(S)-camptothecin & 5(R)-(2′-hydroxyethoxy)-20(S)-camptothecin were evaluated versus the racemate 5(RS)-(2′-hydroxyethoxy)-20(S)-camptothecin on Saos-2 cells over expressing functional BCRP#4 and non-functional BCRP mut#10. The human osteosarcoma cell line, Saos-2, was obtained from ATCC (American Type Culture Collection, Cat#HTB-85, Manassas, Va.) and were maintained in DMEM containing 10% fetal bovine serum, 1% penicillin/streptomycin, and 2 mM glutamine. Saos-2 cells were transfected with either BCRP#4 to over express functional BCRP or BCRP#10 to over express non-functional BCRP transporter. The cells were plated in 96-well plates at a density of 1000 cells per each well in a 0.1 ml of medium and allowed to attach overnight. The next morning the medium was gently aspirated and serial dilutions of the compounds to be tested were added. The cells were incubated at 37° C. in a 5% CO2 incubator. […] The amount of the fluorescent dye produced was measured on a Cytofluor® 2300(Millipore, Bedford, Mass.) using an excitation wavelength of 530 nm and emission wavelength of 590 nm. The relative fluorescence units obtained were used to calculate the percentage growth at each concentration in relation to the untreated control values. […]

[3] = test system: Saos-2 cells over expressing functional BCRP#4; type: cell-based, human
Protocol: as §1, §2

[4] = test system: Human bone marrow mononuclear cells; test: Human bone marrow assay (CFU-GM colony inhibition); type: cell-based; conditions: relative to 5(R) diastereoisomer
Protocol: Protocol for Human Bone Marrow Assay:
Methocult™ GF (Cat No: H4534, Poietics, Biowhittakar, USA) medium comprising Methycellulose in Iscove's MDM, Fetal bovine serum, Bovine serum albumin, 2-Mercaptoethanol, L-Glutamine, rhStem cell factor, rhGM-CSF and rhIL-3 was used for the assay. Human bone marrow mononuclear cells (Cat No. 2M-125C, Poietics, Biowhittakar, USA) were mixed with Methocult GF and the cell density was adjusted to 3×10^5 cells/ml. From this preparation, 500 μL aliquots were made and 2.5 μL of 20× drug solution or vehicle was added to each aliquot and mixed thoroughly. 100 μL of clonogenic medium was plated into each well and the plates were allowed to gel at 4° C. for 15 minutes. Plates were incubated at 37° C. in a fully humidified atmosphere of 5% CO2 in an incubator for 14 days. CFU-GM colonies were counted under an inverted microscope as aggregates of 50 cells or more. The percentage colony inhibition was calculated using the following formula: 100−[(number of colonies in drug treated wells/Number of colonies in control wells)×100].
The in vitro potency of the two diastereomers against cancer cell lines had been compared with their in vitro toxicity in healthy cells.

[5] = cited from earlier work

Row | SMILES | Mortality ([1]; 2 mg/kg) | Mortality ([1]; 4 mg/kg) | fold more cytotoxic than 5(R)-(2′-hydroxyethoxy)-20(S)-camptothecin [2] [fold] | fold more cytotoxic than 5(R)-(2′-hydroxyethoxy)-20(S)-camptothecin [3] [fold] | safety margin (GI90/GI50) compared with that of the 5(R) diastereoisomer [4] | water solubility [5]
1 | CC[C@@]1(O)C(=O)OCc2c1cc1n(c2=O)C(OCCO)c2cc3ccccc3nc2-1 (mixture of isomers) [4(S)-Ethyl-4-hydroxy-12(RS)-(2-hydroxyethoxy)-1,12-dihydro-4H-2-oxa-6,12a-diaza-dibenzo[b,h]fluorine-3,13-dione, reference compound] | 0/5 | 0/5 |  |  |  | 
2 | CC[C@@]1(O)C(=O)OCc2c1cc1n(c2=O)[C@@H](OCCO)c2cc3ccccc3nc2-1 [4-(S)-Ethyl-4-hydroxy-12(S)-(2-hydroxyethoxy)-1,12-dihydro-4H-2-oxa-6,12a-diazadibenzo[b,h] fluorene-3,13-dione] | 0/5 | 0/5 | ~6 | > 2.5 | over twice | 
3 | CC[C@@]1(O)C(=O)OCc2c1cc1n(c2=O)Cc2cc3ccccc3nc2-1 [camptothecin, Camptothecin] |  |  |  |  |  | poorly water soluble
